{"source": "BindingDB's records for doi:10.1124/jpet.301.3.1097", "about": "(Harvard University, 2002)", "key": {"[1]": {"biological_target": "Sodium-dependent dopamine transporter (Rattus norvegicus, UniProt P23977)", "sequence (P23977 whole entry)": "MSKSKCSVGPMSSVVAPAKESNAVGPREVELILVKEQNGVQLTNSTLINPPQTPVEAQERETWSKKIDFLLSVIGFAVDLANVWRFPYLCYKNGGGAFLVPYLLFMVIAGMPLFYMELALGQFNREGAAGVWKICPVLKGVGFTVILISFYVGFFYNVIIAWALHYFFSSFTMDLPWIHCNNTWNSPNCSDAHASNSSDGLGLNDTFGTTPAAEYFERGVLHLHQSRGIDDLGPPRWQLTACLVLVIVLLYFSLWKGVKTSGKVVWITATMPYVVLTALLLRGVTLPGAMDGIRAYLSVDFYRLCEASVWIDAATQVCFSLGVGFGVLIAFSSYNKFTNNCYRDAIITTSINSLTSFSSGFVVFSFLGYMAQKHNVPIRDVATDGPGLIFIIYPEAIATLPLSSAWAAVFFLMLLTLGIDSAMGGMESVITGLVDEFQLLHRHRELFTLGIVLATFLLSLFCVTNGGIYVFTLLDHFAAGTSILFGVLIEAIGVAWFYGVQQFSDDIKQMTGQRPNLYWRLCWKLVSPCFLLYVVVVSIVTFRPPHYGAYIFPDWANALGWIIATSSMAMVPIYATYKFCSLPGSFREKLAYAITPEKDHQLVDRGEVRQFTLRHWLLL"}, "[2]": {"biological_target": "Norepinephrine transporter (Rattus norvegicus, UniProt Q9JIA2)"}, "[3]": {"biological_target": "Sodium-dependent serotonin transporter (Rattus norvegicus, UniProt P31652)", "sequence (P31652 whole entry)": "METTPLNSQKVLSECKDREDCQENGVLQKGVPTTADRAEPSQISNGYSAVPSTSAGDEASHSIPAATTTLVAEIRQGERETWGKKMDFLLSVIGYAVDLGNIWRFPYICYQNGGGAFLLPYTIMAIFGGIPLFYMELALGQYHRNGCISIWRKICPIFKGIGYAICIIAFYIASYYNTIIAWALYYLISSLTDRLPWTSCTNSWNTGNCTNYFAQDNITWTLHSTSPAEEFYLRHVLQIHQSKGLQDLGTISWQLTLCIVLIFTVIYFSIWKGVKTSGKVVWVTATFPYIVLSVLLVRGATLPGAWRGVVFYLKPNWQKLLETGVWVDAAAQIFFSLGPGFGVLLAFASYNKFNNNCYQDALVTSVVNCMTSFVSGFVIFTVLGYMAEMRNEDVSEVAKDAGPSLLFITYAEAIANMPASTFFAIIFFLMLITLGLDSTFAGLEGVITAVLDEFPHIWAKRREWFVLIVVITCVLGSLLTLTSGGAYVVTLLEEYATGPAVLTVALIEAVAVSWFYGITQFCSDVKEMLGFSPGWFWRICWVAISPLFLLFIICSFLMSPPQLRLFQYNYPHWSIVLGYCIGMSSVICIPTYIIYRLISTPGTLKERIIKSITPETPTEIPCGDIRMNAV"}}, "data": [{"compound": "CCn1cc(C(=O)O)c(=O)c2ccc(Cc3ccccc3)nc21", "values": [{"measurement": "Ki", "setting": "[1]", "result": 18.7, "unit": "nM"}, {"measurement": "Ki", "setting": "[2]", "result": "> 10000", "unit": "nM"}]}, {"compound": "CNCCC(Oc1ccccc1OC)c1ccccc1", "note": "(stereo not drawn) [3-(2-methoxyphenoxy)-N-methyl-3-phenylpropan-1-amine]", "values": [{"measurement": "Ki", "setting": "[2]", "result": 0.46, "unit": "nM"}]}, {"compound": "COCCCC/C(=N\\OCCN)c1ccc(C(F)(F)F)cc1", "note": "[(1E)-5-methoxy-1-[4-(trifluoromethyl)phenyl]pentan-1-one O-(2-aminoethyl)oxime]", "values": [{"measurement": "Ki", "setting": "[1]", "result": "> 10000", "unit": "nM"}, {"measurement": "Ki", "setting": "[2]", "result": 5000, "unit": "nM"}]}, {"compound": "C[C@H](N)Cc1ccccc1", "note": "[beta-aminopropylbenzene]", "values": [{"measurement": "Ki", "setting": "[2]", "result": 1000, "unit": "nM"}]}, {"compound": "COC(=O)[C@H](c1ccccc1)[C@H]1CCCCN1", "note": "[methyl (2R)-phenyl[(2R)-piperidin-2-yl]acetate]", "values": [{"measurement": "Ki", "setting": "[3]", "result": "> 10", "unit": "µM"}, {"measurement": "Ki", "setting": "[2]", "result": 126, "unit": "nM"}]}]}
